The record followed here is patent publication US20100196376A1, “METHOD FOR REDUCING ALLERGEN-INDUCED AIRWAY HYPERRESPONSIVENESS” (National Jewish Health, priority 2001, published 2010).

Holding throughout (format): in vivo, mouse (BALB/c)
Test [1] has as its system ovalbumin-sensitized and challenged mice (airway hyperresponsiveness to methacholine). The test is described as follows: Airway function: change in lung resistance (RL) and dynamic compliance (Cdyn) after aerosolized methacholine, ovalbumin-sensitized and challenged mice.
Experimental: (§1) Mice (8/group/experiment) were sensitized by intraperitoneal injection of 20 μg of ovalbumin (Grade V, Sigma) emulsified in 2.25 mg alum (Alum® Inject; Pierce, Rockford, Ill.) in a total volume of 100 μl on days 0 and 14. On days 28, 29 and 30, mice were challenged via the airways by a 20-minute inhalation exposure to aerosols of ovalbumin (1% in saline) obtained from a DeVilbiss ultrasonic nebulizer (particle size 1-5 μm). Age-matched, control animal groups (8/group/experiment) consisted of mice injected with alum alone (non-sensitized) and exposed either to aerosols of saline or to aerosolized ovalbumin, and mice sensitized to ovalbumin but subsequently exposed to aerosols of saline.
Briefly, mice were sensitized and challenged to ovalbumin as described in Example 1. Airway function was assessed in vivo in anesthetized, mechanically ventilated mice as previously described (see, for example, Takeda et al., 1997, J. Exp. Med. 186, 449-454) by measuring changes in lung resistance (RL) and dynamic compliance (Cdyn) in response to intratracheal challenge with aerosolized methacholine at doses of 1.56, 3.125, 6.25 and 12.5 mg/ml in saline. Baseline values were recorded from data obtained after intra-tracheal challenge with aerosolized saline. The data are presented in percent of change from baseline RL, and Cdyn.
Test [2] deals with ovalbumin-sensitized and challenged mice (BAL eosinophils). The test is described as follows: Bronchoalveolar lavage (BAL) differential cell counts, ovalbumin-sensitized and challenged mice. The note with it: i.p. 2 h prior to each allergen challenge; CGRP 20 μg/kg, CGRP fragment 8-37 100 μg/kg (FIG. 3C).
Experimental: as §1
Following assessment of airway function, the lungs were lavaged once with 1 ml of sterile Hank's balanced salt solution (HBSS) pre-warmed at 37° C. The recovered BAL fluids were placed in Eppendorf tubes and were centrifuged at 4° C. for 5 min at 1,500 rpm. The obtained cell pellets were resuspended in 200 μl of sterile phosphate-buffered saline (PBS) and total cell numbers were determined from counting of crystal violet-stained aliquots using a hemacytometer. Differential cell counts were determined from cytospin preparations stained with Leukostat (Fisher Diagnostics, Pittsburgh, Pa.). At least 200 cells were counted from each slide in a blinded fashion.
For test [3], the system named is ovalbumin-sensitized and challenged mice (tissue infiltrating eosinophils). In words: Tissue infiltrating eosinophils, MBP immunoperoxidase and morphometric analysis of lung sections. The note with it: i.p. 2 h prior to each allergen challenge; CGRP 20 μg/kg, CGRP fragment 8-37 100 μg/kg (FIG. 3D).
Experimental: For histology and immunohistochemistry, the lungs of the mice were inflated and fixed with 4% paraformaldehyde in PBS for 24 h at 4° C. followed by processing into paraffin. Five μm-thick sections were cut from the paraffin blocks, deparaffinized and stained with hematoxylin and eosin for routine histology.
The pan neuronal marker PGP9.5, CGRP and tissue eosinophils were detected by immunoperoxidase. Unless otherwise stated, all incubations were carried out at room temperature. All washes were performed with TBS (50 mM TRIS-buffered saline pH 7.6) 3 times for 5 min. Endogenous peroxidase was blocked by incubation of tissue sections with H2O2 (0.3% in methanol) for 30 minutes. […]
For tissue eosinophils, the sections were pretreated for 5 min with 0.01% trypsin in TBS to retrieve antigens. […] CGRP was detected with a polyclonal rabbit anti-CGRP antibody (Biogenesis) diluted 1:200. […]
The data of immunohistochemistry were quantitatively analyzed (morphometric analysis) on a G-3 Macintosh computer using the National Institutes of Health (NIH) Scion Image analysis software. […]
The number of tissue infiltrating eosinophils was determined by counting all MBP-positive cells present in the airway wall including the adventitia. When eosinophils were present in tissue areas connecting blood vessels to adjacent airways only 50% of these cells were counted for these airways. […]

On to “CGRP(8-37): highly selective CGRP receptor antagonist, human synthetic CGRP (fragment 8-37), from Sigma”, for which the “Inhibitory effect of CGRP on AHR after pretreatment with the receptor antagonist” value in test [1] (CGRP i.p. after allergen challenge period, animals pretreated with CGRP(8-37) (FIGS. 4A, 4B)) is “totally neutralized”. In addition, in test [1] (administration after the period of allergen challenge, CGRP i.p. at 2 h prior to assessment of airway function (FIGS. 4A, 4B)), the “AHR in sensitized mice” value is “did not alter”. In test [1] (i.p. 2 h prior to each allergen challenge, CGRP 20 μg/kg, CGRP fragment 8-37 100 μg/kg (FIGS. 3A, 3B)), the “Extent / development of AHR” value is “did not produce any significant change”. Further, in test [2], the “Numbers of BAL eosinophils” value is given as “no significant effect”. Also, in test [3], the “Numbers of tissue infiltrating eosinophils” value was “no significant effect”.
